Measurements: article doi:10.1101/2025.05.06.651509v2 (biorxiv, 2026)
pKd: −log10 of the molar value.

Experiments:
IGF2BP2 = IGF2BP2 (Homo sapiens, UniProt Q9Y6M1); test: microscale thermophoresis; assay type: binding; conditions: room temperature; legend of Figure 4A prints 12 μM
TSC22D4 = biological target: T1, TSC22D4 (Homo sapiens, UniProt Q9Y3Q8); test: microscale thermophoresis; assay type: binding; conditions: room temperature
T1 sequence (Q9Y3Q8 1-395): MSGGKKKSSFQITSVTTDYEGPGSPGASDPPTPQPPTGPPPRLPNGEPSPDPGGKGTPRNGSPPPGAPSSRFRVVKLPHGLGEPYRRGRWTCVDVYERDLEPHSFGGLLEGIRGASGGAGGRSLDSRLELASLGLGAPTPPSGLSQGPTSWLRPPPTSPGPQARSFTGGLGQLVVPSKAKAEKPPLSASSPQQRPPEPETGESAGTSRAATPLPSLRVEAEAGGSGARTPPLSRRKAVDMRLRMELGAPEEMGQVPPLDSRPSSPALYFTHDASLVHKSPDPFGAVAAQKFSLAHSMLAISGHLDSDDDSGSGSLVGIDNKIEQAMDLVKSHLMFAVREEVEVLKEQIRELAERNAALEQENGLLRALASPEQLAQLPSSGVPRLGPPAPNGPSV

IGF2BP2, sequence (Q9Y6M1 whole entry): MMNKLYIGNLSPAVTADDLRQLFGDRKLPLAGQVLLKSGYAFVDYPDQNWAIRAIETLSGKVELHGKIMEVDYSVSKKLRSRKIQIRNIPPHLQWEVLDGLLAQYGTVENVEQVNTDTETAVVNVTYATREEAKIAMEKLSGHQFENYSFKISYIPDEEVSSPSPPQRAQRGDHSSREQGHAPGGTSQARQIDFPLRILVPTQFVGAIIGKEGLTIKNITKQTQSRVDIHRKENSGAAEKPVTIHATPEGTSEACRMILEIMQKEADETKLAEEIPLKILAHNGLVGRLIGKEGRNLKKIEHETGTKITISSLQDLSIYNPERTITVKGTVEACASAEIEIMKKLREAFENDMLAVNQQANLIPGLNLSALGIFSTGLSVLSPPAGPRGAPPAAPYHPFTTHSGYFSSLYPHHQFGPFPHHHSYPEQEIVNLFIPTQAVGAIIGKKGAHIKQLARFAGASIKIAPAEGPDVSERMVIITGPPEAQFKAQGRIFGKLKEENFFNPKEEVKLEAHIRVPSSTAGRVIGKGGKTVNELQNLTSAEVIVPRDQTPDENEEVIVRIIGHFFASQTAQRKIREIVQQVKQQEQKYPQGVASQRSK

- pKd (IGF2BP2): 5.09
- pKd (TSC22D4): ~3.33
SMILES: OC[C@H]1OC(O)[C@H](O)[C@@H](O)[C@@H]1O (some centres unmarked) [glucose]
